pIC50: −log10 of the molar value.
Target: T1, human CXCR6 (Homo sapiens, UniProt O00574)
T1 construct: expressed in transfected cells
Test: Radioligand Binding Assay (125I-CXCL16 displacement)
Conditions: L1.2 cells stably transfected with human CXCR6 cDNA, 0.1 nM 125I-CXCL16, 4° C., three-hour incubation; read-out: Potency (IC50)
How it was run: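 L1.2 cells stably expressing human CXCR6 incubated 3 h at 4 °C in HBSS/0.1% BSA with 0.1 nM 125I-CXCL16 and graded compound concentrations. Bound radioactivity collected by filtration and counted; IC50 from 3-parameter nonlinear regression.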

T1 sequence (O00574 whole entry): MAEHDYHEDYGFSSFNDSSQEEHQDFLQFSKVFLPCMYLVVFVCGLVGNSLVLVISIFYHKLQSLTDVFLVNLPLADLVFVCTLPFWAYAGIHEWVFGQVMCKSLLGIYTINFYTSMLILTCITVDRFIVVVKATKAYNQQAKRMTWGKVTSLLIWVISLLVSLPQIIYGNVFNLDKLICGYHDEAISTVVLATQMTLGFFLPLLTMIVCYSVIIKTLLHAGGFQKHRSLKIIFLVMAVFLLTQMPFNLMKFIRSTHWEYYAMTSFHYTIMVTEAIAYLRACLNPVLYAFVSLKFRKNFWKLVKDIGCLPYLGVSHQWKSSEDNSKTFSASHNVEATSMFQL

| Compound | pIC50 |
| --- | --- |
| Cc1cc(NC(=O)c2ccno2)ccc1S(=O)(=O)Nc1cccc(C(F)(F)F)c1 [Example 1.067] | 6.12 to 6.70 |
| CCOc1cc(NC(=O)CC(O)CO)ccc1S(=O)(=O)Nc1cccc(OC(F)(F)F)c1 (centres unmarked) [Example 1.387] | 5.70 to 6.12 |
| CCOc1cc(NC(=O)[C@@H](CO)C(C)C)ccc1S(=O)(=O)Nc1cccc(Cl)c1C [Example 1.540] | 6.12 to 6.70 |
| CCOc1cc(NC(=O)C2CC3C=CC2O3)ccc1S(=O)(=O)Nc1cccc(OC(F)(F)F)c1 (centres unmarked) [Example 1.046] | 6.12 to 6.70 |
| CCOc1cc(NC(=O)[C@@H](CO)C(C)C)ccc1S(=O)(=O)Nc1ccc(Cl)cc1 [Example 1.044] | 6.12 to 6.70 |
| Cc1cc(NC(=O)c2cccnc2)ccc1S(=O)(=O)Nc1cccc(C(F)(F)F)c1 [Example 1.330] | 6.12 to 6.70 |
| CCOc1cc(NC(=O)[C@@H]2CCCCC[C@H]2O)ccc1S(=O)(=O)Nc1cccc(OC(F)(F)F)c1 [Example 1.562] | 6.12 to 6.70 |
| Cc1cc(NC(=O)c2ccnnc2)ccc1S(=O)(=O)Nc1cccc(C(F)(F)F)c1 [Example 1.093] | 5.70 to 6.12 |
| COc1cc(NC(=O)c2ccnn2C)ccc1S(=O)(=O)Nc1ccc(Cl)c(Cl)c1 [Example 1.247] | 5.70 to 6.12 |
| CCOc1cc(NC(=O)C2CCN(C(C)=O)CC2)ccc1S(=O)(=O)Nc1cccc(OC(F)(F)F)c1 [Example 1.161] | 4.70 to 5.70 |
| COc1cc(NC(=O)[C@@H]2CCC[C@H]2NC(=O)OC(C)(C)C)ccc1S(=O)(=O)Nc1cccc(C(F)(F)F)c1 [Example 1.426] | 4.70 to 5.70 |
| CCOc1cc(NC(=O)[C@@H](CO)c2ccccc2)ccc1S(=O)(=O)Nc1ccc(OC)c(C(F)(F)F)c1 [Example 1.546] | 6.12 to 6.70 |
| CCOc1cc(NC(=O)[C@@H](CO)C2CC2)ccc1S(=O)(=O)Nc1cccc(C(C)(C)C)c1 [Example 1.516] | 6.12 to 6.70 |
| CCCCOc1cc(NC(=O)c2ccnn2C)ccc1S(=O)(=O)Nc1cccc(C(F)(F)F)c1 [Example 1.156] | 4.70 to 5.70 |
| CCOc1cc(NC(=O)[C@@H](O)C(C)C)ccc1S(=O)(=O)Nc1ccc(C)c(F)c1 [Example 1.195] | 6.12 to 6.70 |
| COc1cc(NC(=O)c2ccnn2C)ccc1S(=O)(=O)Nc1ccc(Cl)cc1 [Example 1.114] | 6.12 to 6.70 |
| COc1cc(NC(=O)c2ccnn2C)ccc1S(=O)(=O)Nc1cc(Cl)cc(OC(F)(F)F)c1 [Example 1.336] | 6.12 to 6.70 |
| COc1cc(NC(=O)c2ccnn2C)ccc1S(=O)(=O)Nc1cccc(Cl)c1 [Example 1.202] | 4.70 to 5.70 |
| CCOc1cc(NC(=O)[C@@H](CO)c2ccccc2)ccc1S(=O)(=O)Nc1ccc(C)c(Cl)c1 [Example 1.441] | 6.12 to 6.70 |
| COc1cc(NC(=O)C2CCCCC2=O)ccc1S(=O)(=O)Nc1cccc(OC(F)(F)F)c1 (centres unmarked) [Example 1.457] | 4.70 to 5.70 |
| CCCCOc1cc(NC(=O)c2ccns2)ccc1S(=O)(=O)Nc1cccc(C(F)(F)F)c1 [Example 1.124] | 4.70 to 5.70 |
| Cc1cc(NC(=O)c2ccccc2F)ccc1S(=O)(=O)Nc1cccc(C(F)(F)F)c1 [Example 1.070] | 4.70 to 5.70 |

| Compound | pIC50 |
| --- | --- |
| COc1cc(NC(=O)[C@H]2CC[C@H](OC)CC2)ccc1S(=O)(=O)Nc1cccc(C(F)(F)F)c1 [Example 1.051] | 4.70 to 5.70 |
| CCn1nccc1C(=O)Nc1ccc(S(=O)(=O)Nc2cccc(C(F)(F)F)c2)c(OC)c1 [Example 1.238] | 6.12 to 6.70 |
| CCOc1cc(NC(=O)[C@H]2CCCC[C@@H]2OC)ccc1S(=O)(=O)Nc1cccc(OC(F)(F)F)c1 [Example 1.307] | 6.12 to 6.70 |
| COc1cc(NC(=O)[C@@H]2C=CCN2C)ccc1S(=O)(=O)Nc1cccc(C(F)(F)F)c1 [Example 1.194] | 4.70 to 5.70 |
| COc1cc(NC(=O)[C@@H]2C=CCN2C(=O)OC(C)(C)C)ccc1S(=O)(=O)Nc1cccc(C(F)(F)F)c1 [Example 1.033] | 4.70 to 5.70 |
| COc1cc(NC(=O)C2CCCC2)ccc1S(=O)(=O)Nc1cccc(C(F)(F)F)c1 [Example 1.497] | 5.70 to 6.12 |
| Cc1cc(NC(=O)[C@H]2CCOC[C@H]2C)ccc1S(=O)(=O)Nc1cccc(C(F)(F)F)c1 (racemic) [Example 1.483] | 6.12 to 6.70 |
| CCOc1cc(NC(=O)CC(O)c2cccnc2)ccc1S(=O)(=O)Nc1cccc(OC(F)(F)F)c1 (centres unmarked) [Example 1.236] | 5.70 to 6.12 |
| Cc1ccccc1C(=O)Nc1ccc(S(=O)(=O)Nc2cccc(C(F)(F)F)c2)c(C)c1 [Example 1.293] | 6.12 to 6.70 |
| COc1cc(NC(=O)c2ccnn2C)ccc1S(=O)(=O)Nc1ccc(OC(F)(F)F)c(Cl)c1 [Example 1.559] | 5.70 to 6.12 |
| CCOc1cc(NC(=O)[C@@H](CO)c2ccccc2)ccc1S(=O)(=O)Nc1cccc(OC)c1C [Example 1.045] | 4.70 to 5.70 |
| Cc1cc(NC(=O)c2cnoc2C)ccc1S(=O)(=O)Nc1cccc(C(F)(F)F)c1 [Example 1.255] | 6.12 to 6.70 |
| COc1cc(NC(=O)c2ccnn2C)ccc1S(=O)(=O)Nc1ccc(OC(F)(F)F)c(C)c1 [Example 1.125] | 5.70 to 6.12 |
| CCOc1cc(NC(=O)C(CO)C2CCOCC2)ccc1S(=O)(=O)Nc1cccc(OC(F)(F)F)c1 (centres unmarked) [Example 1.092] | 6.12 to 6.70 |
| COc1cc(NC(=O)c2ccnn2C)ccc1S(=O)(=O)Nc1ccc(Cl)c(C(F)(F)F)c1 [Example 1.489] | 5.70 to 6.12 |
| CCOc1cc(NC(=O)[C@@H](O)C(C)C)ccc1S(=O)(=O)Nc1cccc(OC(F)(F)F)c1C [Example 1.267] | 4.70 to 5.70 |
| Cc1cc(NC(=O)c2ccn(C)n2)ccc1S(=O)(=O)Nc1cccc(C(F)(F)F)c1 [Example 1.001] | 4.70 to 5.70 |
| CCOc1cc(NC(=O)[C@H]2CC[C@H](OC)CC2)ccc1S(=O)(=O)Nc1cccc(OC(F)(F)F)c1 [Example 1.028] | 5.70 to 6.12 |
| CCOc1cc(NC(=O)C(O)[C@@H](C)CC)ccc1S(=O)(=O)Nc1cccc(C(F)(F)F)c1 (some centres unmarked) [Example 1.390] | ≥ 6.70 |
| CCOc1cc(NC(=O)[C@@H](O)C2CCCC2)ccc1S(=O)(=O)Nc1cccc(OC(F)(F)F)c1 [Example 1.416] | ≥ 6.70 |
| COc1cc(NC(=O)C2CC(=O)N(C)C2)ccc1S(=O)(=O)Nc1cccc(OC(F)(F)F)c1 (centres unmarked) [Example 1.442] | 4.70 to 5.70 |
| CCc1cc(NC(=O)[C@@H](CO)C(C)C)ccc1S(=O)(=O)Nc1cccc(OC(F)(F)F)c1 [Example 1.201] | ≥ 6.70 |

The next lines start with the values.

| pIC50 | Compound |
| --- | --- |
| ≥ 6.70 | CCOc1cc(NC(=O)[C@@H](O)C(C)C)ccc1S(=O)(=O)Nc1ccc(F)c(C(F)(F)F)c1 [Example 1.084] |
| ≥ 6.70 | CCOc1cc(NC(=O)C(NC)c2ccccc2)ccc1S(=O)(=O)Nc1cccc(OC(F)(F)F)c1 (centres unmarked) [Example 1.408] |
| ≥ 6.70 | CCOc1cc(NC(=O)C(C(=O)O)C2CCOCC2)ccc1S(=O)(=O)Nc1cccc(OC(F)(F)F)c1 (centres unmarked) [Example 1.377] |
| ≥ 6.70 | CCOc1cc(NC(=O)C(CO)CC2CC2)ccc1S(=O)(=O)Nc1cccc(OC(F)(F)F)c1 (centres unmarked) [Example 1.014] |
| ≥ 6.70 | CCOc1cc(NC(=O)[C@H](O)C2CCCC2)ccc1S(=O)(=O)Nc1cccc(OC(F)(F)F)c1 [Example 1.281] |
| ≥ 6.70 | C=Cc1cc(NS(=O)(=O)c2ccc(NC(=O)[C@@H](CO)C(C)C)cc2OCC)ccc1C [Example 1.548] |
| ≥ 6.70 | CCOc1cc(NC(=O)[C@@H](NC(C)=O)C(C)C)ccc1S(=O)(=O)Nc1ccc(C)c(OC(F)(F)F)c1 [Example 1.275] |
| ≥ 6.70 | CCOc1cc(NC(=O)[C@H]2[C@H](C)COC[C@@H]2C)ccc1S(=O)(=O)Nc1cccc(OC(F)(F)F)c1 [Example 1.305] |
| ≥ 6.70 | CCOc1cc(NC(=O)C(O)C2C=CCC2)ccc1S(=O)(=O)Nc1cccc(OC(F)(F)F)c1 (centres unmarked) [Example 1.031] |
| ≥ 6.70 | CCOc1cc(NC(=O)C(C(=O)NCCO)C2CCCC2)ccc1S(=O)(=O)Nc1cccc(OC(F)(F)F)c1 (centres unmarked) [Example 1.339] |
| ≥ 6.70 | CCOc1cc(NC(=O)C(O)C2CC2)ccc1S(=O)(=O)Nc1cccc(OC(F)(F)F)c1 (centres unmarked) [Example 1.198] |
| ≥ 6.70 | COc1cc(NC(=O)c2ccnn2C)ccc1S(=O)(=O)Nc1ccc(F)c(OC(F)(F)F)c1 [Example 1.409] |
| ≥ 6.70 | CCOc1cc(NC(=O)[C@@H](CO)C(C)C)ccc1S(=O)(=O)Nc1cccc(OC(F)(F)F)c1 [Example 1.022] |
| ≥ 6.70 | CCOc1cc(NC(=O)C2CC3C=CC2O3)ccc1S(=O)(=O)Nc1cccc(OC(F)(F)F)c1 (centres unmarked) [Example 1.508] |
| ≥ 6.70 | CCOc1cc(NC(=O)C(CO)C(C)C)ccc1S(=O)(=O)Nc1cccc(OC(F)(F)F)c1 (centres unmarked) [Example 1.563] |
| ≥ 6.70 | CCOc1cc(NC(=O)C(O)C2CCCOC2)ccc1S(=O)(=O)Nc1cccc(OC(F)(F)F)c1 (centres unmarked) [Example 1.094] |
| ≥ 6.70 | CCOc1cc(NC(=O)[C@@H](CO)C(C)C)ccc1S(=O)(=O)Nc1ccc(C)c(C(F)(F)F)c1 [Example 1.102] |
| ≥ 6.70 | CCOc1cc(NC(=O)[C@@H](CO)C(C)C)ccc1S(=O)(=O)Nc1ccc(F)c(OC(F)(F)F)c1 [Example 1.288] |
| ≥ 6.70 | COc1cc(NC(=O)[C@@H](O)C(C)C)ccc1S(=O)(=O)Nc1ccc(C)c(OC(F)(F)F)c1 [Example 1.557] |
| ≥ 6.70 | CCOc1cc(NC(=O)[C@@H](CO)C(C)C)ccc1S(=O)(=O)Nc1ccc(C)c(CC)c1 [Example 1.356] |
| ≥ 6.70 | CCOc1cc(NC(=O)c2ccc(N)nc2)ccc1S(=O)(=O)Nc1cccc(OC(F)(F)F)c1 [Example 1.326] |
| ≥ 6.70 | CCOc1cc(NC(=O)[C@@H](O)C(C)C)ccc1S(=O)(=O)Nc1ccc(CC)c(C(F)(F)F)c1 [Example 1.411] |
| ≥ 6.70 | CCOc1cc(NC(=O)[C@@H](O)C(C)C)ccc1S(=O)(=O)Nc1ccc(F)c(OC(F)(F)F)c1 [Example 1.209] |
| ≥ 6.70 | CCOc1cc(NC(=O)[C@@H](O)c2ccccc2F)ccc1S(=O)(=O)Nc1cccc(OC(F)(F)F)c1 [Example 1.329] |
| ≥ 6.70 | CCOc1cc(NC(=O)[C@@H](O)C(C)(C)C)ccc1S(=O)(=O)Nc1cccc(OC(F)(F)F)c1 [Example 1.577] |
| ≥ 6.70 | CCCc1cc(NC(=O)[C@@H](CO)C2CC2)ccc1S(=O)(=O)Nc1cccc(OC(F)(F)F)c1 [Example 1.099] |
| ≥ 6.70 | CCOc1cc(NC(=O)[C@@H](CO)C(C)C)ccc1S(=O)(=O)Nc1cccc(C(C)C)c1 [Example 1.155] |

Source: patent publication US20230339851A1, “CXCR6 SULFONAMIDE COMPOUNDS” (CHEMOCENTRYX, INC., priority 2022, published 2023)
